Experimental data: ChEMBL document CHEMBL5370606, “Diterpenoids from Euphorbia fischeriana with Kv1.3 Inhibitory Activity” (J Nat Prod, 2023)

Assays:
[1] = target: T1, Potassium voltage-gated channel subfamily A member 3 (Homo sapiens, UniProt P22001); experiment: Inhibition of Kv1.3 (unknown origin) expressed in HEK293 cells at 30 uM at -90 mV holding potential by automated patch-clamp technique relative to control; type: cell-based
[2] = target: T2, hERG (KCNH2) (Homo sapiens, UniProt Q12809); experiment: Inhibition of human ERG expressed in HEK293 cells at 30 uM at -80 mV holding potential by whole-cell patch clamp method; type: toxicity, cell-based; settings: HEK293 cells that express hERG
T2 sequence (Q12809 whole entry): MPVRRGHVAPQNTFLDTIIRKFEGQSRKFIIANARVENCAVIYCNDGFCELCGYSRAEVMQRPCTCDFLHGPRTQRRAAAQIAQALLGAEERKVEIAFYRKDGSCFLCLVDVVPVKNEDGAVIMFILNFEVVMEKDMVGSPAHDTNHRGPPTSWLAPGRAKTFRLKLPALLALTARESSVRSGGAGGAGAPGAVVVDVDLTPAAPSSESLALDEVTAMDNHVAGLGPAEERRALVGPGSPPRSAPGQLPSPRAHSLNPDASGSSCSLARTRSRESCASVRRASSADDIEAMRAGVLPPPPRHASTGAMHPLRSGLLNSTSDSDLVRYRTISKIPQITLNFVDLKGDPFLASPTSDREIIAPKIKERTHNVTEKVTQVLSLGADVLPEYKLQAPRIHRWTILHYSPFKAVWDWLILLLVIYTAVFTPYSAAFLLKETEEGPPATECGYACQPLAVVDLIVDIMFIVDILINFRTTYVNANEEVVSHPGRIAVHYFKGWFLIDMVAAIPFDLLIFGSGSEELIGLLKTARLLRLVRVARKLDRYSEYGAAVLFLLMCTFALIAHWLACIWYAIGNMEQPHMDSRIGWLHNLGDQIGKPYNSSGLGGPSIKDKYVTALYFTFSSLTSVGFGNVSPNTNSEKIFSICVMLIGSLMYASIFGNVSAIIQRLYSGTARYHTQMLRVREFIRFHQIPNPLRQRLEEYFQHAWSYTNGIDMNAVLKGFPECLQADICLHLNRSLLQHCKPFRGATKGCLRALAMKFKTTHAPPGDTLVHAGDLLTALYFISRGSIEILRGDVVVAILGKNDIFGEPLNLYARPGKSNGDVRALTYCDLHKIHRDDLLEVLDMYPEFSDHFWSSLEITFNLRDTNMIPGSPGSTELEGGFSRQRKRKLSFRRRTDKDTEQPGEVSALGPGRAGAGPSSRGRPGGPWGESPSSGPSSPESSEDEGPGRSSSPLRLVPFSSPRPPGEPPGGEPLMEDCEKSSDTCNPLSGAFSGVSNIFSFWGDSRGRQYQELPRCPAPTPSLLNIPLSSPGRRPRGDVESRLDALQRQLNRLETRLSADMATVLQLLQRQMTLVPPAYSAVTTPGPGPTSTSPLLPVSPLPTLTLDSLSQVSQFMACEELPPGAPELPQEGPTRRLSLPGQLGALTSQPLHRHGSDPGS

[3] = tested on: HEK293; experiment: Cytotoxicity against HEK293 cells; type: toxicity, cell-based; settings: human
[4] = target: T1, Potassium voltage-gated channel subfamily A member 3; experiment: Inhibition of Kv1.3 (unknown origin) expressed in HEK293 cells at 10 uM at -90 mV holding potential by automated patch-clamp technique relative to control; type: cell-based
[5] = target: T2, hERG (KCNH2); experiment: Inhibition of human ERG expressed in HEK293 cells at 10 uM at -80 mV holding potential by whole-cell patch clamp method; type: toxicity, cell-based; settings: HEK293 cells that express hERG
[6] = target: T1, Potassium voltage-gated channel subfamily A member 3; experiment: Inhibition of Kv1.3 (unknown origin) expressed in HEK293 cells at -90 mV holding potential by automated patch-clamp technique; type: cell-based
[7] = target: Voltage-gated inwardly rectifying potassium channel KCNH2 (Homo sapiens, UniProt Q12809); experiment: Inhibition of human ERG expressed in HEK293 cells at -80 mV holding potential by whole-cell patch clamp method; type: toxicity, cell-based
Chain of Voltage-gated inwardly rectifying potassium channel KCNH2 (Q12809 whole entry): as above

[8] = species: Homo sapiens; experiment: Selectivity index, ratio of IC50 for human ERG expressed in HEK293 cells to IC50 for Kv1.3 (unknown origin) expressed in HEK293 cells; type: cell-based

T1 sequence (P22001 whole entry): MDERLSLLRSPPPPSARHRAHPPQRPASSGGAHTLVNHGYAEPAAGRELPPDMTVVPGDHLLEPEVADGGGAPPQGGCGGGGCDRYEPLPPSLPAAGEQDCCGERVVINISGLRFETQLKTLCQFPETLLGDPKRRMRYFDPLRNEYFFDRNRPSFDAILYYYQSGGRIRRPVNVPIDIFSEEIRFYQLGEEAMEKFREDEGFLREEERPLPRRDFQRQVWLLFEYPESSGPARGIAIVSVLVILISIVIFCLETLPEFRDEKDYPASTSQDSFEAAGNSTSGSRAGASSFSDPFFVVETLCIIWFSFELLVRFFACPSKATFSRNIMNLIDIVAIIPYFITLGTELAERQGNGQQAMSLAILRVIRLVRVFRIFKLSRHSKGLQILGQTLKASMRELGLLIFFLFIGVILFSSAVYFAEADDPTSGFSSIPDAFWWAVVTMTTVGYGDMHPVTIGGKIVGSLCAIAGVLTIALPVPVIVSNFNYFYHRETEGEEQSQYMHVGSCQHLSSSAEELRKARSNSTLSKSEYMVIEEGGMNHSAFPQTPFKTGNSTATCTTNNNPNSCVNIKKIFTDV

Row | inhibition [1] | inhibition [4] | IC50 [6] | SMILES | inhibition at 30 µM [2] | Activity [3] | inhibition at 10 µM [5] | IC50 [7] | Ratio IC50 [8]
1 | 21.2% | – | – | CC1=C2C=C3CC[C@@H]4C(C)(C)[C@H](O)CC[C@@]4(C)[C@]3(O)C[C@H]2OC1=O | – | Non-Toxic | – | – | –
2 | 32.3% | – | – | C=C1C[C@@]23CC[C@@H]4C(C)(C)C(=O)CC[C@@]4(C)[C@@H]2C[C@@H]1[C@@H](O)C3=O | 24.5% | Non-Toxic | – | – | –
3 | 75.1% | 39.2% | – | CC(=O)O[C@]12C[C@@H](C)[C@H](O)[C@@H]1[C@H]1O[C@]1(C)[C@H](O)C[C@H]1[C@@H](/C=C(\C)C2=O)C1(C)C | – | Non-Toxic | – | – | –
4 | 70.6% | 33.5% | – | CC(=O)O[C@]12C[C@@H](C)[C@H](O)[C@@H]1/C=C(\C)[C@H](O)C[C@@H]1[C@@H](/C=C(\C)C2=O)C1(C)C | – | Non-Toxic | – | – | –
5 | 72% | 30.2% | – | CC(=O)O[C@@H]1[C@@H](C)/C=C/C(C)(C)C(=O)C[C@@H](OC(C)=O)/C(C)=C/[C@H]2[C@@H](OC(=O)c3ccccc3)[C@H](C)C[C@]12O | – | Non-Toxic | – | – | –
6 | 89.4% | 47.6% | – | COC(=O)CCC(=O)O[C@@H]1C[C@H]2[C@@H](/C=C(\C)C(=O)[C@@]3(OC(C)=O)C[C@@H](C)[C@H](O)[C@@H]3/C=C/1C)C2(C)C | 49.7% | Non-Toxic | 29.7% | – | –
7 | 10.4% | – | – | C=C1C[C@@]23CC[C@@H]4C(C)(C)[C@H](O)CC[C@@]4(C)[C@@H]2C[C@@H]1[C@@H](O)C3=O | – | Non-Toxic | – | – | –
8 | 20.4% | – | – | CC1=C2C=C3CC[C@@H]4C(C)(C)[C@H](O)C(=O)C[C@@]4(C)[C@@H]3C[C@H]2OC1=O | – | Non-Toxic | – | – | –
9 | 84.2% | 59.8% | – | CC(=O)O[C@@H]1[C@@H](C)/C=C/C(C)(C)C(=O)C[C@@H](O)/C(C)=C/[C@H]2[C@@H](OC(=O)c3ccccc3)[C@H](C)C[C@]12OC(C)=O | 75.4% | Non-Toxic | 44.6% | – | –
10 | 17.2% | – | – | CC1=C2C=C3CC[C@@H]4C(C)(C)C(=O)CC[C@@]4(C)[C@]3(O)C[C@H]2OC1=O | – | Non-Toxic | – | – | –
11 | 86.5% | 62.2% | – | CC(=O)O[C@@H]1CC(=O)C(C)(C)/C=C/[C@@H](C)[C@@H](O)[C@@]2(OC(C)=O)C[C@@H](C)[C@H](OC(=O)c3ccccc3)[C@@H]2/C=C/1C | 60.2% | Non-Toxic | 36.9% | – | –
12 | 7.1% | – | – | CC1(C)C(=O)CC[C@]2(C)[C@@H]1CC[C@@]13CC[C@@H](C[C@H]12)[C@](O)(CO)C3 | – | Non-Toxic | – | – | –
13 | 69.3% | 28.7% | – | CC(=O)O[C@@H]1[C@@H](C)/C=C/C(C)(C)C(=O)C[C@@H](O)/C(C)=C/[C@H]2[C@@H](OC(=O)c3ccccc3)[C@H](C)C[C@]12O | – | Non-Toxic | – | – | –
14 | 67.5% | 21.7% | – | CC(=O)O[C@]12C[C@@H](C)[C@H](O)[C@@H]1/C=C(\C)[C@H](O)C[C@H]1[C@@H](/C=C(\C)C2=O)C1(C)C | – | Non-Toxic | – | – | –
15 | 81.2% | 55.6% | 4.3 µM | CC(=O)O[C@]12C[C@@H](C)[C@H](OC(=O)c3ccccc3)[C@@H]1/C=C(\C)[C@H](O)C[C@H]1[C@@H](/C=C(\C)C2=O)C1(C)C | 40.9% | Non-Toxic | – | > 30 µM | > 7
16 | 77.5% | 42.9% | – | CC(=O)O[C@H]1[C@@H](C)/C=C/C(C)(C)C(=O)CC(=O)/C(C)=C/[C@H]2[C@@H](OC(=O)c3ccccc3)[C@H](C)C[C@@]21O | – | Non-Toxic | – | – | –
17 | 35.1% | – | – | Fc1ccc([C@@H]2CCNC[C@H]2COc2ccc3c(c2)OCO3)cc1 [PAROXETINE] | – | Non-Toxic | – | – | –
18 | 83.5% | 43.5% | – | C/C1=C\[C@H]2[C@@H](OC(=O)c3ccccc3)[C@H](C)C[C@]2(O)[C@H](O)[C@@H](C)/C=C/C(C)(C)C(=O)C[C@H]1O | – | Non-Toxic | – | – | –
19 | 21% | – | – | CC1(C)[C@H](O)CC[C@]2(C)[C@@H]1CC[C@@]13CC[C@@H](C[C@H]12)[C@](O)(CO)C3 | – | Non-Toxic | – | – | –
20 | 14.5% | – | – | CC1=C2C(=C[C@H]3[C@]4(C)CC[C@@H](O)C(C)(C)[C@H]4CC[C@]34O[C@H]24)OC1=O | – | Non-Toxic | – | – | –
21 | 24.4% | – | – | CC1=C2C=C3CC[C@@H]4C(C)(C)C(=O)[C@H](O)[C@@]4(C)[C@@H]3C[C@H]2OC1=O | 19.9% | Non-Toxic | – | – | –

Row | SMILES | inhibition [1] | inhibition [4] | IC50 [6] | inhibition at 30 µM [2] | Activity [3] | inhibition at 10 µM [5] | IC50 [7] | Ratio IC50 [8]
22 | CC(=O)OCC1=C[C@@H]2C(=O)[C@]3(C=C(C)[C@H](O)[C@@]3(O)[C@@H]1O)[C@H](C)C[C@@H]1[C@H]2C1(C)C | 12.5% | – | – | 23.3% | Non-Toxic | – | – | –
23 | CCC/C=C\C=C\C(=O)O[C@@H]1C[C@H]2[C@@H](/C=C(\C)C(=O)[C@@]3(OC(C)=O)C[C@@H](C)[C@H](O)[C@@H]3/C=C/1C)C2(C)C | 77.7% | 39.8% | – | – | Non-Toxic | – | – | –
